# Source: patent US12214036B2, “Combination therapy comprising AXL/MER and PD-1/PD-L1 inhibitors” (Incyte Corporation, priority 2020, dated 2025)
# Columns and labels:
# [1] = test system: human PBMCs co-cultured with H1299 cells; test: H1299 / PBMC co-culture cytokine assay; assay type: cell-based; conditions: 4 days
# Description: The ability of Compound 1 to cooperate with checkpoint blockade to further boost antitumor responses was evaluated. H1299 lung cancer cells were co-cultured with stimulated human PBMCs treated with Compound 1, anti-human programmed cell death (PD)-1 antibody retifanlimab or the combination, and production of proinflammatory cytokines was assessed in two different experiments (FIG. 6).
# H1299 cells were co-cultured with human PBMCs, each at 4 or 16×10^4 cells/mL in RPMI containing 10% FBS, 100 U/mL of penicillin-streptomycin (ThermoFisher Scientific; #15140-122) and 1× beta-mercaptoethanol (ThermoFisher Scientific; #21985-023). Compound 1 or retifanlimab were added as single agents or in combination to the cells. Anti-CD3 (BD Biosciences #555336), anti-CD28 (BD Biosciences #555725) or SEA (Toxin Technology, Sarasota, Fla.; #AT101red) were added at a final concentration of 1 μg/mL, 0.5 μg/mL or 100 ng/mL, respectively, to stimulate cell growth. Cultures were incubated at 37° C. in 5% CO2 incubator for 4 days. The supernatant was collected for cytokine analysis using a multiplex assay system (custom human ProcartaPlex Luminex kit, ThermoFisher Scientific; #PPX-15-MXRWE6P).
# MC38 tumor = MC38 tumor model, combination with checkpoint blockade; assay type: in vivo, C57BL/6 mice
# Excerpt: (§1) MBT-2 cells were obtained from the Japanese Collection of Research Bioresources Cell Bank and were maintained in DMEM supplemented with 10% FBS. MC38 cells were obtained from the NCI. 4T1 cells were obtained from ATCC and maintained in RPMI media supplemented with 10% FBS. For MBT-2 experiments, 5×10^5 MBT-2 cells were inoculated subcutaneously into the right hind flank of 6- to 8-week-old C3H mice or athymic nude mice (Charles River Laboratories, Wilmington, Mass.). For MC38 studies, 12-week old female C57BL/6 mice were inoculated with brei of MC38 tumors (in-vivo passage 6) into the right hind flank. For 4T1 studies, 7.5×10^5 4 T1 cells were inoculated subcutaneously into the right hind flank of 6- to 8-week-old female BALB/c mice or athymic nude mice (Charles River Laboratories). Mice were randomized by tumor volume with n=10-12 per group. […] Mice were monitored for tumor growth and overt tolerability over the course of the experiment. […] Tumor volume was calculated using the formula (L×W^2)/2, where L and W refer to the length and width dimensions, respectively. Tumor growth inhibition (TGI) was calculated using the formula (1−(VT/VC))×100, where VT is the tumor volume of the treatment group on the last day of treatment, and VC is the tumor volume of the control group on the last day of treatment. […]
# CTG-1302 tumors = test: Sarcoma PDX model CTG-1302 (leiomyosarcoma); assay type: in vivo, athymic nude mice; conditions: CTG-1302, 10, 30, 100 mg/kg BID oral, FIG. 9B
# Excerpt: as §1, with “Laboratories).” for “Laboratories). Mice were randomized by tumor volume with n=10-12 per group.”
# The activity of Compound 1 in sarcoma PDX models was evaluated as described in Example H for PDX models. […] Three mice per group were analyzed. […]
structure (smiles),measurement,setting,value
"CC(C)C(=O)N1CCC(c2cc(-c3ccc(NC(=O)c4cn(C(C)C)c(=O)n(-c5ccccn5)c4=O)cc3)c3c(N)ncnn23)CC1 [Compound 1, N-(4-(4-Amino-7-(1-isobutyrylpiperidin-4-yl)pyrrolo[1,2-f][1,2,4]triazin-5-yl)phenyl)-1-isopropyl-2,4-dioxo-3-(pyridin-2-yl)-1,2,3,4-tetrahydropyrimidine-5-carboxamide]",proinflammatory cytokine production,"[1]; stimulated PBMCs + H1299, FIG. 6",induction of proinflammatory cytokines
same,induction of IFN-γ,"[1]; stimulated PBMCs + H1299, FIG. 6B",induced
same,induction of tumor necrosis factor-α,"[1]; stimulated PBMCs + H1299, FIG. 6C",induced
same,induction of granulocyte-macrophage colony-stimulating factor,"[1]; stimulated PBMCs + H1299, FIG. 6D",induced
same,induction of IL-12 p70,"[1]; stimulated PBMCs + H1299, FIG. 6E",moderately induced
same,antitumor activity (tumor volume),"MC38 tumor; MC38 in C57BL/6 mice, Compound 1 oral BID, anti-PD-L1 15 mg/kg i.p. twice a week, FIG. 8A",single-agent antitumor activity
same,proliferation of CD4+ and CD8+ tumor-infiltrating lymphocytes (Ki67+),"MC38 tumor; MC38 tumors, FIGS. 8B and 8C",induced proliferation
same,antitumor response,CTG-1302 tumors,robust antitumor response
